From US20260191968A1, “PROTAC DEGRADERS OF MLLT1 AND/OR MLLT3” (DARK BLUE THERAPEUTICS LTD, priority 2024, published 2026)

Legend:
MLLT1 = target: T1, MLLT1 (Homo sapiens, UniProt Q03111); experiment: MLLT1 degradation assay in MV4-11 cells (JESS chemiluminescent detection), three concentrations, 24 h; assay type: cell-based; details: with respect to DMSO control
T1 construct: host or cells: MV4-11
T1 sequence (Q03111 1-559): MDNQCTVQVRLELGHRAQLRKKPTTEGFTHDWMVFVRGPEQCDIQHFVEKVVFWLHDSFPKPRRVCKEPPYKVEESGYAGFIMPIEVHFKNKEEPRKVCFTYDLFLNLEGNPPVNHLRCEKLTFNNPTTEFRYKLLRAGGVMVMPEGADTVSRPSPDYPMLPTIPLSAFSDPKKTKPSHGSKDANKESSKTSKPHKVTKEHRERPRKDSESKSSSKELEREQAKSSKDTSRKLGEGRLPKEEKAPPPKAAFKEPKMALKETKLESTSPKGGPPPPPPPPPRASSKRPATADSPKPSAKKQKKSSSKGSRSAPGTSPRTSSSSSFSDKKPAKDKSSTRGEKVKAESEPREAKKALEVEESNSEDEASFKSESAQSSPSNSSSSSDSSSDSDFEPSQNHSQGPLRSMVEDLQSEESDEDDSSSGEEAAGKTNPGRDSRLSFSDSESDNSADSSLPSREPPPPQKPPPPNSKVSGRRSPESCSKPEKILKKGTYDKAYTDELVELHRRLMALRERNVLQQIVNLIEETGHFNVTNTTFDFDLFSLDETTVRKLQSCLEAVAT
In short: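 Read-out is % MLLT1 degradation versus DMSO, from band peak areas on a JESS chemiluminescent system. Cells (MV4-11) were exposed for 24 h at 37° C to three compound levels, 10, 100 and 1000 nM, in 0.1% DMSO.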

MV4-11 cells = experiment: MV4-11 cellular proliferative assay, Assay Format B (CTG 2.0, 168 h); assay type: cell-based; details: Homo sapiens, 168 h (7 days), CTG 2.0, read-out: IC50 (MV4-11 cellular proliferative assay, Assay format B)
In short: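 Viability read by CellTiter-Glo 2.0 luminescence after 7-day (168 h) compound exposure of MV4-11 cells in IMDM/10% FBS. Ten 3-fold concentrations starting at 1 uM or 100 nM, 0.3% final DMSO; curves normalised to DMSO control, four-parameter fit.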

MLLT1% Degradation @ 0.1 μM (MLLT1)	MLLT1% Degradation @ 1 μM (MLLT1)	IC50 (MV4-11 cells) [µM]	SMILES	MLLT1% Degradation @ 0.01 μM (MLLT1)
A (Category A: A ≥ 75% degradation)	A (Category A: A ≥ 75% degradation)	≤ 0.1	CN1CCC[C@@H]1c1cc2cnc(NC(=O)c3ccc(CCCCC#Cc4cccc5c4CN(C4CCC(=O)NC4=O)C5=O)cc3F)cc2[nH]1 (stereo partly drawn) [Example 112, 4-(6-(2-(2,6-dioxopiperidin-3-yl)-1-oxoisoindolin-4-yl)hex-5-yn-1-yl)-2-fluoro-N-(2-((R)-1-methylpyrrolidin-2-yl)-1H-pyrrolo[3,2-c]pyridin-6-yl)benzamide]	A (Category A: A ≥ 75% degradation)
A (Category A: A ≥ 75% degradation)	A (Category A: A ≥ 75% degradation)	≤ 0.1	CN1CCC[C@@H]1c1[nH]c2cc(NC(=O)c3ccc(CCCCC#Cc4cccc5c4CN(C4CCC(=O)NC4=O)C5=O)cc3F)ncc2c1Cl (stereo partly drawn) [Example 113, N-(3-chloro-2-((R)-1-methylpyrrolidin-2-yl)-1H-pyrrolo[3,2-c]pyridin-6-yl)-4-(6-(2-(2,6-dioxopiperidin-3-yl)-1-oxoisoindolin-4-yl)hex-5-yn-1-yl)-2-fluorobenzamide]	A (Category A: A ≥ 75% degradation)
A (Category A: A ≥ 75% degradation)	A (Category A: A ≥ 75% degradation)	≤ 0.1	COc1cc(CCCCC#Cc2cccc3c2CN(C2CCC(=O)NC2=O)C3=O)ccc1C(=O)Nc1cc2[nH]c([C@H]3CCCN3C)cc2cn1 (stereo partly drawn) [Example 115, 4-(6-(2-(2,6-dioxopiperidin-3-yl)-1-oxoisoindolin-4-yl)hex-5-yn-1-yl)-2-methoxy-N-(2-((R)-1-methylpyrrolidin-2-yl)-1H-pyrrolo[3,2-c]pyridin-6-yl)benzamide]	A (Category A: A ≥ 75% degradation)
A (Category A: A ≥ 75% degradation)	A (Category A: A ≥ 75% degradation)	≤ 0.1	CN1CCC[C@@H]1c1cc2cnc(NC(=O)c3ccc(C4CCN(CC5CCN(c6cccc7c6CN(C6CCC(=O)NC6=O)C7=O)CC5)CC4)nc3)cc2[nH]1 (stereo partly drawn) [Example 119, 6-(1-((1-(2-(2,6-dioxopiperidin-3-yl)-1-oxoisoindolin-4-yl)piperidin-4-yl)methyl)piperidin-4-yl)-N-(2-((R)-1-methylpyrrolidin-2-yl)-1H-pyrrolo[3,2-c]pyridin-6-yl)nicotinamide]	B (Category B: 50% ≤ B < 75% degradation)
A (Category A: A ≥ 75% degradation)	A (Category A: A ≥ 75% degradation)	≤ 0.1	CN1CCC[C@@H]1c1cc2cnc(NC(=O)c3ccc(OC4CCN(CC5CCN(c6ccc7c(c6)C(=O)N(C6CCC(=O)NC6=O)C7=O)CC5)CC4)cc3)cc2[nH]1 (stereo partly drawn) [Example 124, 4-((1-((1-(2-(2,6-dioxopiperidin-3-yl)-1,3-dioxoisoindolin-5-yl)piperidin-4-yl)methyl)piperidin-4-yl)oxy)-N-(2-((R)-1-methylpyrrolidin-2-yl)-1H-pyrrolo[3,2-c]pyridin-6-yl)benzamide]	B (Category B: 50% ≤ B < 75% degradation)
A (Category A: A ≥ 75% degradation)	A (Category A: A ≥ 75% degradation)	≤ 0.1	CN1CCC[C@@H]1c1cc2cnc(NC(=O)c3ccc(OC4CCN(CC5CCN(c6cccc7c6CN(C6CCC(=O)NC6=O)C7=O)CC5)CC4)nc3)cc2[nH]1 (stereo partly drawn) [Example 125, 6-((1-((1-(2-(2,6-dioxopiperidin-3-yl)-1-oxoisoindolin-4-yl)piperidin-4-yl)methyl)piperidin-4-yl)oxy)-N-(2-((R)-1-methylpyrrolidin-2-yl)-1H-pyrrolo[3,2-c]pyridin-6-yl)nicotinamide]	A (Category A: A ≥ 75% degradation)
A (Category A: A ≥ 75% degradation)	A (Category A: A ≥ 75% degradation)	≤ 0.1	CN1CCC[C@@H]1c1cc2cnc(NC(=O)c3ccc(CCCN4CCN(c5cccc6c5CN(C5CCC(=O)NC5=O)C6=O)CC4)cc3)cc2[nH]1 (stereo partly drawn) [Example 131, 4-(3-(4-(2-(2,6-dioxopiperidin-3-yl)-1-oxoisoindolin-4-yl)piperazin-1-yl)propyl)-N-(2-((R)-1-methylpyrrolidin-2-yl)-1H-pyrrolo[3,2-c]pyridin-6-yl)benzamide]	B (Category B: 50% ≤ B < 75% degradation)
A (Category A: A ≥ 75% degradation)	A (Category A: A ≥ 75% degradation)	≤ 0.1	CN1CCC[C@@H]1c1cc2cnc(NC(=O)c3ccc(N4CCC(OC5CCN(c6cccc7c6CN(C6CCC(=O)NC6=O)C7=O)CC5)CC4)cc3)cc2[nH]1 (stereo partly drawn) [Example 137, 4-(4-((1-(2-(2,6-dioxopiperidin-3-yl)-1-oxoisoindolin-4-yl)piperidin-4-yl)oxy)piperidin-1-yl)-N-(2-((R)-1-methylpyrrolidin-2-yl)-1H-pyrrolo[3,2-c]pyridin-6-yl)benzamide]	A (Category A: A ≥ 75% degradation)

SMILES	MLLT1% Degradation @ 0.1 μM (MLLT1)	MLLT1% Degradation @ 1 μM (MLLT1)	IC50 (MV4-11 cells) [µM]	MLLT1% Degradation @ 0.01 μM (MLLT1)
COc1cc(N2CCN(CC3CCN(c4cccc5c4CN(C4CCC(=O)NC4=O)C5=O)CC3)CC2)cc(F)c1C(=O)Nc1cc2[nH]c([C@H]3CCCN3C)cc2cn1 (stereo partly drawn) [Example 120, 4-(4-((1-(2-(2,6-dioxopiperidin-3-yl)-1-oxoisoindolin-4-yl)piperidin-4-yl)methyl)piperazin-1-yl)-2-fluoro-6-methoxy-N-(2-((R)-1-methylpyrrolidin-2-yl)-1H-pyrrolo[3,2-c]pyridin-6-yl)benzamide]	A (Category A: A ≥ 75% degradation)	C (Category C: 25% ≤ C < 50% degradation)	≤ 0.1	B (Category B: 50% ≤ B < 75% degradation)
CN1CCC[C@@H]1c1cc2cnc(NC(=O)c3ccc(N4CCN(Cc5ccc(-c6cccc7c6CN(C6CCC(=O)NC6=O)C7=O)cc5)CC4)nc3)cc2[nH]1 (stereo partly drawn) [Example 129, 6-(4-(4-(2-(2,6-dioxopiperidin-3-yl)-1-oxoisoindolin-4-yl)benzyl)piperazin-1-yl)-N-(2-((R)-1-methylpyrrolidin-2-yl)-1H-pyrrolo[3,2-c]pyridin-6-yl)nicotinamide]	B (Category B: 50% ≤ B < 75% degradation)	C (Category C: 25% ≤ C < 50% degradation)	≤ 0.1	B (Category B: 50% ≤ B < 75% degradation)
C[C@H]1CN(CC2CCN(c3cccc4c3CN(C3CCC(=O)NC3=O)C4=O)CC2)CCN1c1ccc(C(=O)Nc2cc3[nH]c([C@H]4CCCN4C)cc3cn2)cc1 (stereo partly drawn) [Example 132, 4-((2S)-4-((1-(2-(2,6-dioxopiperidin-3-yl)-1-oxoisoindolin-4-yl)piperidin-4-yl)methyl)-2-methylpiperazin-1-yl)-N-(2-((R)-1-methylpyrrolidin-2-yl)-1H-pyrrolo[3,2-c]pyridin-6-yl)benzamide]	A (Category A: A ≥ 75% degradation)	B (Category B: 50% ≤ B < 75% degradation)	≤ 0.1	B (Category B: 50% ≤ B < 75% degradation)
